In ChEMBL document CHEMBL1135305, “Enantiospecific, selective cyclooxygenase-2 inhibitors” (Bioorg Med Chem Lett, 2002):

Assays:
[1] = target: T1, Prostaglandin G/H synthase 2 (Homo sapiens, UniProt P35354); experiment: Inhibitory concentration against human prostaglandin G/H synthase 2
T1 sequence (P35354 whole entry): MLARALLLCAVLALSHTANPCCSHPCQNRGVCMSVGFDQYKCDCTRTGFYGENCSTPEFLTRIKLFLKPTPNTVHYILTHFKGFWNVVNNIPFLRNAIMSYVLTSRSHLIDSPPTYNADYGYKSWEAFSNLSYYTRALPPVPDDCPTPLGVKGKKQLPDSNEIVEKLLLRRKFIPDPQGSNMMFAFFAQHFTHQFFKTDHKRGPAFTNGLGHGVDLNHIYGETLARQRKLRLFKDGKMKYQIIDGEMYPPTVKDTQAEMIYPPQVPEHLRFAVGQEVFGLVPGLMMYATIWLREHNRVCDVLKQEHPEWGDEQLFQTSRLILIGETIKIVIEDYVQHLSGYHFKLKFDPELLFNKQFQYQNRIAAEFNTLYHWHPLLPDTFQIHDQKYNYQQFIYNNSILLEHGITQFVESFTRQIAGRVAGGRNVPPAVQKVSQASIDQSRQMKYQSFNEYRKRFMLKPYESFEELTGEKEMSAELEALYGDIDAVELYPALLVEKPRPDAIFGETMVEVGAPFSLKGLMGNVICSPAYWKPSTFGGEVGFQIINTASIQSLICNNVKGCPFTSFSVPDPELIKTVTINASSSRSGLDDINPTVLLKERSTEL

[2] = target: T2, Prostaglandin G/H synthase 1 (Ovis aries, UniProt P05979)
T2 sequence (P05979 whole entry): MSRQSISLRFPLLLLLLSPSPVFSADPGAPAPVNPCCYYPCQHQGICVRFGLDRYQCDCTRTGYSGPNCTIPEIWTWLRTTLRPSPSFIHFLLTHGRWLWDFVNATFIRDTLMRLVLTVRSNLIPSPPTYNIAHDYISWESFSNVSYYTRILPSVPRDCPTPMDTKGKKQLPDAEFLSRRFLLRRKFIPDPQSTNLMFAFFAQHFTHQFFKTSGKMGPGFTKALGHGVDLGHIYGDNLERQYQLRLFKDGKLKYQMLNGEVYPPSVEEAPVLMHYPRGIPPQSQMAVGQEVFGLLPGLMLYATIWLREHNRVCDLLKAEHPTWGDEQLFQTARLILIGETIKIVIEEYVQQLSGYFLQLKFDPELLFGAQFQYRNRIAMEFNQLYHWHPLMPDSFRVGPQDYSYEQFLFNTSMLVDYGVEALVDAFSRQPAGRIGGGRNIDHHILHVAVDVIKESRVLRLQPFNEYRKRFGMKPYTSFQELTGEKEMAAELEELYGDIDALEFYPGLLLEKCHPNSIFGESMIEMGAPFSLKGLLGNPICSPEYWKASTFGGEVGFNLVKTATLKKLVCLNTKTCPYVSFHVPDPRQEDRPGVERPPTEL
Description: Inhibitory concentration against prostaglandin G/H synthase 1

[3] = target: Prostaglandin G/H synthase 2 (Mus musculus, UniProt Q05769, H122N); experiment: Inhibitory concentration against H122N mutant murine Prostaglandin G/H synthase 2
[4] = target: Prostaglandin G/H synthase 2 (Mus musculus, UniProt Q05769, I92L); experiment: Inhibitory concentration against I92L mutant murine Prostaglandin G/H synthase 2
[5] = target: T3, Prostaglandin G/H synthase 2 (Mus musculus, UniProt Q05769); experiment: Inhibitory concentration against V5231, mutant murine Prostaglandin G/H synthase 2
[6] = target: Prostaglandin G/H synthase 2 (Mus musculus, UniProt Q05769, S516A); experiment: Inhibitory concentration against S530A mutant murine Prostaglandin G/H synthase 2
Prostaglandin G/H synthase 2 (Mus musculus, UniProt Q05769, S516A), sequence (Q05769 18-604 S516A limits assumed): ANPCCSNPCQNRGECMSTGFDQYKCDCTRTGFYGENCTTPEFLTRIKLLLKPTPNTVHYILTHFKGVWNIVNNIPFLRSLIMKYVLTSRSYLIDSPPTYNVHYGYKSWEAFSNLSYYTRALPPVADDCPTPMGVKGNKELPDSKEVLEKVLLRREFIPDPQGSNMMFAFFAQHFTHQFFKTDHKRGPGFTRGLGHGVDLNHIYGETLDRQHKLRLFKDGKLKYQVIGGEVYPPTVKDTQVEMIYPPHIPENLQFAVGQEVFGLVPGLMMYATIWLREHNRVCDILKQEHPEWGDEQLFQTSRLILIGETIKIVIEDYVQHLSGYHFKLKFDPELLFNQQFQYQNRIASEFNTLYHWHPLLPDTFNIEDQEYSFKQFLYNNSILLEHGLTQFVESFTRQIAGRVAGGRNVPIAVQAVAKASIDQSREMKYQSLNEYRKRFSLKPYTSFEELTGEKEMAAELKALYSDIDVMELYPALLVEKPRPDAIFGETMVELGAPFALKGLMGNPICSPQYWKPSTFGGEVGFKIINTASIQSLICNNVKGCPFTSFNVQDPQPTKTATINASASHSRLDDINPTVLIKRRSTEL

[7] = target: Prostaglandin G/H synthase 2 (Mus musculus, UniProt Q05769, F343L); experiment: Inhibitory concentration against F357L mutant murine Prostaglandin G/H synthase 2
Prostaglandin G/H synthase 2 (Mus musculus, UniProt Q05769, F343L), sequence (Q05769 18-604 F343L limits assumed): as the sequence (Q05769 18-604 S516A limits assumed) above, with F326L, A499S counted along it

[8] = target: Prostaglandin G/H synthase 2 (Mus musculus, UniProt Q05769, R106A); experiment: Inhibitory concentration against R120A mutant murine Prostaglandin G/H synthase 2
Prostaglandin G/H synthase 2 (Mus musculus, UniProt Q05769, R106A), sequence (Q05769 18-604 R106A limits assumed): as the sequence (Q05769 18-604 S516A limits assumed) above, with R89A, A499S counted along it

[9] = target: T3, Prostaglandin G/H synthase 2; experiment: Inhibitory concentration against l503F mutant murine Prostaglandin G/H synthase 2
[10] = target: Prostaglandin G/H synthase 2 (Mus musculus, UniProt Q05769, S105V/Y101L); experiment: Inhibitory concentration against Y115L/S119V mutant murine Prostaglandin G/H synthase 2
Prostaglandin G/H synthase 2 (Mus musculus, UniProt Q05769, S105V/Y101L), sequence (Q05769 18-604 Y101L/S105V limits assumed): as the sequence (Q05769 18-604 S516A limits assumed) above, with Y84L, S88V, A499S counted along it

[11] = target: Prostaglandin G/H synthase 2 (Mus musculus, UniProt Q05769, S105V); experiment: Inhibitory concentration against S119V mutant murine Prostaglandin G/H synthase 2
Prostaglandin G/H synthase 2 (Mus musculus, UniProt Q05769, S105V), sequence (Q05769 18-604 S105V limits assumed): as the sequence (Q05769 18-604 S516A limits assumed) above, with S88V, A499S counted along it

[12] = target: T4, Prostaglandin G/H synthase 2 (Mus musculus, UniProt Q05769); experiment: Inhibitory concentration against wild type murine Prostaglandin G/H synthase 2
T4 sequence (Q05769 whole entry): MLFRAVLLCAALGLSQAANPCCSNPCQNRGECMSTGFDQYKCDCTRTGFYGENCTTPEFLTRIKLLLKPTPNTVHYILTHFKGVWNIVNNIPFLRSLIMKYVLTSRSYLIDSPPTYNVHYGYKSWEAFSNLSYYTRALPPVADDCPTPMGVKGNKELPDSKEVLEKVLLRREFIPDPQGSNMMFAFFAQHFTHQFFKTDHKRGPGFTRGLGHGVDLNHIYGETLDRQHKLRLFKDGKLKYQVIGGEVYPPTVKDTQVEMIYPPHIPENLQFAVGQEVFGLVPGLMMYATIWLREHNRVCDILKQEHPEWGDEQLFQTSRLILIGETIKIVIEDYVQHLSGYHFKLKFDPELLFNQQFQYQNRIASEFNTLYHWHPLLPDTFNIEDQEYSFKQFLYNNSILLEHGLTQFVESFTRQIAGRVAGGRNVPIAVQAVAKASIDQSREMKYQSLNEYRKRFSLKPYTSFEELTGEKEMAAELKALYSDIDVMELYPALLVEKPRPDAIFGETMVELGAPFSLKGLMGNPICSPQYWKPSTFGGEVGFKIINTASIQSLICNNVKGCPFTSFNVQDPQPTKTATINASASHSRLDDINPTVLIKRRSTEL

[13] = target: Prostaglandin G/H synthase 2 (Mus musculus, UniProt Q05769, E510L); experiment: Inhibitory concentration against E524L mutant murine Prostaglandin G/H synthase 2
Prostaglandin G/H synthase 2 (Mus musculus, UniProt Q05769, E510L), sequence (Q05769 18-604 E510L limits assumed): as the sequence (Q05769 18-604 S516A limits assumed) above, with E493L, A499S counted along it

[14] = target: T3, Prostaglandin G/H synthase 2; experiment: Inhibitory concentration against V891 mutant murine Prostaglandin G/H synthase 2
[15] = target: Prostaglandin G/H synthase 2 (Mus musculus, UniProt Q05769, R106Q); experiment: Inhibitory concentration against R120Q mutant murine Prostaglandin G/H synthase 2
Prostaglandin G/H synthase 2 (Mus musculus, UniProt Q05769, R106Q), sequence (Q05769 18-604 R106Q limits assumed): as the sequence (Q05769 18-604 S516A limits assumed) above, with R89Q, A499S counted along it

[16] = target: T3, Prostaglandin G/H synthase 2; experiment: Inhibitory concentration against VRV, mutant murine Prostaglandin G/H synthase 2
[17] = target: Prostaglandin G/H synthase 2 (Mus musculus, UniProt Q05769, Y101L); experiment: Inhibitory concentration against Y115L mutant murine Prostaglandin G/H synthase 2
Prostaglandin G/H synthase 2 (Mus musculus, UniProt Q05769, Y101L), sequence (Q05769 18-604 Y101L limits assumed): as the sequence (Q05769 18-604 S516A limits assumed) above, with Y84L, A499S counted along it

[18] = target: Prostaglandin G/H synthase 2 (Mus musculus, UniProt Q05769, L489F); experiment: Inhibitory concentration against L503F mutant murine Prostaglandin G/H synthase 2
Prostaglandin G/H synthase 2 (Mus musculus, UniProt Q05769, L489F), sequence (Q05769 18-604 L489F limits assumed): as the sequence (Q05769 18-604 S516A limits assumed) above, with L472F, A499S counted along it

SMILES | IC50 [1] [nM] | IC50 [2] [nM] | other results
CC[C@H](C)NC(=O)Cc1c(C)n(C(=O)c2ccc(Cl)cc2)c2ccc(OC)cc12 | 110 | 4700 | 
COc1ccc2c(c1)c(CC(=O)NC[C@H](O)c1ccccc1)c(C)n2C(=O)c1ccc(Cl)cc1 | 210 | > 63000 | 
COc1ccc2c(c1)c(CC(=O)N[C@@H](CO)Cc1ccccc1)c(C)n2C(=O)c1ccc(Cl)cc1 | 220 | > 50000 | 
COc1ccc2c(c1)c(CC(=O)NC(C)(C)CO)c(C)n2C(=O)c1ccc(Cl)cc1 | 190 | 800 | 
COc1ccc2c(c1)c(CC(=O)NN1CCC[C@H]1CO)c(C)n2C(=O)c1ccc(Cl)cc1 | 1800 | > 80000 | 
COc1ccc2c(c1)c(CC(=O)NC[C@H](C)O)c(C)n2C(=O)c1ccc(Cl)cc1 | 320 | 32000 | 
COc1ccc2c(c1)c(CC(=O)N[C@@H](CO)CCSC)c(C)n2C(=O)c1ccc(Cl)cc1 | 250 | 51000 | 
CC[C@H](CO)NC(=O)Cc1c(C)n(C(=O)c2ccc(Cl)cc2)c2ccc(OC)cc12 | 100 | 59000 | 
COc1ccc2c(c1)c(CC(=O)N[C@H](CO)c1ccccc1)c(C)n2C(=O)c1ccc(Cl)cc1 | 85 | < 1300 | 
COc1ccc2c(c1)c(CC(=O)N[C@H](CO)Cc1ccccc1)c(C)n2C(=O)c1ccc(Cl)cc1 | 85 | < 3900 | 
COc1ccc2c(c1)c(CC(=O)N[C@H](CO)CC(C)C)c(C)n2C(=O)c1ccc(Cl)cc1 | 170 | < 3900 | 
COc1ccc2c(c1)c(CC(=O)N[C@H](CO)C(C)C)c(C)n2C(=O)c1ccc(Cl)cc1 | 370 | 400 | 
COc1ccc2c(c1)c(CC(=O)N[C@H](CO)CCSC)c(C)n2C(=O)c1ccc(Cl)cc1 | 1000 | 2300 | 
CCC(C)[C@@H](CO)NC(=O)Cc1c(C)n(C(=O)c2ccc(Cl)cc2)c2ccc(OC)cc12 (stereo not given in full) | 110 | 480 | 
COc1ccc2c(c1)c(CC(=O)N[C@@H](CO)c1ccccc1)c(C)n2C(=O)c1ccc(Cl)cc1 | 440 | 47000 | 
COc1ccc2c(c1)c(CC(=O)N[C@@H](CO)CC(C)C)c(C)n2C(=O)c1ccc(Cl)cc1 | 500 | > 63000 | 
COc1ccc2c(c1)c(CC(=O)NCCCCO)c(C)n2C(=O)c1ccc(Cl)cc1 | 280 | 86000 | 
CC[C@@H](C)NC(=O)Cc1c(C)n(C(=O)c2ccc(Cl)cc2)c2ccc(OC)cc12 | 130 | 180 | 
COC[C@@H](C)NC(=O)Cc1c(C)n(C(=O)c2ccc(Cl)cc2)c2ccc(OC)cc12 | 140 | 6800 | 
COc1ccc2c(c1)c(CC(=O)NCCCO)c(C)n2C(=O)c1ccc(Cl)cc1 | 220 | 64000 | 
COc1ccc2c(c1)c(CC(=O)NCCCCCCO)c(C)n2C(=O)c1ccc(Cl)cc1 | 210 | > 63000 | 
COc1ccc2c(c1)c(CC(=O)NN1CCC[C@@H]1CO)c(C)n2C(=O)c1ccc(Cl)cc1 | 1700 | > 80000 | 
COc1ccc2c(c1)c(CC(=O)NCCCCCO)c(C)n2C(=O)c1ccc(Cl)cc1 | 290 | > 83000 | 
COc1ccc2c(c1)c(CC(=O)N[C@@H](C)CO)c(C)n2C(=O)c1ccc(Cl)cc1 | 270 | 590 | IC50 [3]: 300 nM; IC50 [4]: 200 nM; IC50 [5]: 220 nM; IC50 [6]: 150 nM; IC50 [7]: 250 nM; IC50 [8]: 60 nM; IC50 [9]: 160 nM; IC50 [10]: 210 nM; IC50 [11]: 200 nM; IC50 [12]: 170 nM; IC50 [13]: 220 nM; IC50 [14]: 85 nM; IC50 [15]: 75 nM; IC50 [16]: 110 nM; IC50 [17]: 390 nM
COc1ccc2c(c1)c(CC(=O)NC[C@@H](C)O)c(C)n2C(=O)c1ccc(Cl)cc1 | 330 | 52000 | 
CC[C@@H](CO)NC(=O)Cc1c(C)n(C(=O)c2ccc(Cl)cc2)c2ccc(OC)cc12 | 280 | 350 | 
COc1ccc2c(c1)c(CC(=O)N[C@@H](CO)C(C)C)c(C)n2C(=O)c1ccc(Cl)cc1 | 110 | > 63000 | 
COc1ccc2c(c1)c(CC(=O)NC[C@@H](O)c1ccccc1)c(C)n2C(=O)c1ccc(Cl)cc1 | 47 | 56000 | 
COc1ccc2c(c1)c(CC(=O)N[C@H](C)CO)c(C)n2C(=O)c1ccc(Cl)cc1 | 170 | 33000 | IC50 [3]: 690 nM; IC50 [4]: 200 nM; IC50 [5]: 690 nM; IC50 [6]: 570 nM; IC50 [7]: 250 nM; IC50 [8]: 50 nM; IC50 [18]: 300 nM; IC50 [10]: 290 nM; IC50 [11]: 240 nM; IC50 [12]: 540 nM; IC50 [13]: 560 nM; IC50 [14]: 250 nM; IC50 [15]: 90 nM; IC50 [16]: 340 nM; IC50 [17]: 325 nM
COC[C@H](C)NC(=O)Cc1c(C)n(C(=O)c2ccc(Cl)cc2)c2ccc(OC)cc12 | 240 | > 60000 | 
